The results in this text go back to BindingDB's records for patent US20250282741 (Innovo Therapeutics, 2025).

This experiment addresses T1, Serpin H1 (Human, UniProt P50454).
T1 sequence (P50454 whole entry): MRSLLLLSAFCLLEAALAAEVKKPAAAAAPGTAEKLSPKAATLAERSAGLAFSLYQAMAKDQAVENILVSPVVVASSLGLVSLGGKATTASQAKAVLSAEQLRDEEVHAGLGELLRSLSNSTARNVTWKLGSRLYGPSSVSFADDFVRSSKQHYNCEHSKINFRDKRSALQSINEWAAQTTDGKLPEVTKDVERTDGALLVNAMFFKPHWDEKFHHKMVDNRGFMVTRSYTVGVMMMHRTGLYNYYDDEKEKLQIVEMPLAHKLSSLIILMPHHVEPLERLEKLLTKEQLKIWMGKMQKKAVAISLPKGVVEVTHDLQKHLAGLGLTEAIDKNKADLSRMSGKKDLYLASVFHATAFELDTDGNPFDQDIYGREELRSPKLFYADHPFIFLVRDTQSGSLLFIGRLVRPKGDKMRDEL
As to the kind of experiment: Inhibition of HSP47 Function. Here is the method:
Fibrils were formed by adding 180 ul of phosphate-buffered saline (PBS, pH 7.4) solution to 20 ul of collagen dissolved in acidic solution (collagen solution, UK), which was measured at a wavelength of 340 nm. HSP47 (GenScript US) was added at a concentration of 9.45 μg/ml to assess HSP47 activity as the degree to which it inhibits fibril formation. Test compound was added with concentrations of 100 μM to 1 μM and the inhibitory activity of HSP47 was calculated as a percentage or EC50.

For the compound `CCc1oc2cc(Cl)ccc2c1C(=O)c1cc(Br)c(O)c(Br)c1` [US20250282741, Example 12], the EC50 came out at 73.1 µM.

The compound `CCc1oc2c(Cl)cccc2c1C(=O)c1cc(I)c(O)c(I)c1` [US20250282741, Example 14] showed a concentration giving a half-maximal response (EC50) of 15.9 µM.

On to `CCc1oc2cc(C(F)(F)F)ccc2c1C(=O)c1cc(Br)c(O)c(Br)c1` [US20250282741, Example 22], for which the EC50 stood at 32.1 µM.

In general, EC50 refers to the concentration at which the effect is half-maximal. High values mean lower potency in that assay, low ones higher potency in that assay.
